Key:
[1] = target: T1, GST-tagged GDP-loaded KRAS G12V (amino acids 1-169) (Homo sapiens, UniProt P01116, G12V); assay: KRAS G12V probe displacement assay (TR-FRET); type: binding; conditions: displacement of biotinylated probe 2 from GDP-loaded KRAS G12V
T1 construct: GST-tagged GDP-loaded KRAS G12V (amino acids 1-169); made in house; host or cells: E. coli
Procedure, shortened: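 GST-tagged GDP-loaded KRAS 1-169 (WT 3 nM; G12V 2 nM final) preincubated 1 h at 24 °C with serially diluted compound in HEPES pH 7.5 buffer, then biotinylated probe added (probe 1 60 nM for WT; probe 2 2.5 nM for G12V), 1 h. Anti-GST-Tb/streptavidin-XL665 TR-FRET 665/620 ratio; IC50 by four-parameter fit.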

[2] = tested on: pERK1/2(THR202/TYR204) level, SW620 cell line; assay: KRAS G12V pERK assay (HTRF); type: cell-based; conditions: Homo sapiens, SW-620; SW620 cells, 2 hrs compound treatment
Procedure: SW620 cell line was used in this study. Cells were maintained in RPMI 1640 supplemented with 10% fetal bovine serum (Thermo Fisher), 50 units/mL penicillin and streptomycin (Thermo Fisher) and kept at 37° C. in a humidified atmosphere of 5% CO2 in air. Cells were reinstated from frozen stocks that were laid down within 30 passages from the original cells purchased. 40000 cells per well were seeded into a 96-well plate and incubated overnight. Cells were treated with a 10-point dilution series. The final compound concentration is from […]. After 2 hrs compound treatment, cells were lysed, and the pERK1/2(THR202/TYR204) level in the cell lysates was detected by HTRF kit (Cisbio). In brief, a total of 16 μL of cell lysate from each well of a 96-well plate was transferred to a 384-well white assay plate. Lysate from each well was incubated with 2 μL of Eu3+− cryptate (donor) labeled anti-phospho-ERK1/2 and 2 μL of D2 (acceptor) labeled anti-phospho-ERK1/2 antibodies (Cisbio) overnight in dark at room temperature. When donor and acceptor are in close proximity, excitation of the donor with laser triggers a Fluorescence Resonance Energy Transfer (FRET) towards the acceptor, which in turn fluoresces at 655 nm wavelength. FRET signals were measured using a PHERAstar FSX reader (BMG Labtech). IC50 determination was performed by fitting the curve of percent inhibition versus the log of the inhibitor concentration using Dotmatics.

T1 sequence (P01116 1-169 isoform P01116-2 G12V): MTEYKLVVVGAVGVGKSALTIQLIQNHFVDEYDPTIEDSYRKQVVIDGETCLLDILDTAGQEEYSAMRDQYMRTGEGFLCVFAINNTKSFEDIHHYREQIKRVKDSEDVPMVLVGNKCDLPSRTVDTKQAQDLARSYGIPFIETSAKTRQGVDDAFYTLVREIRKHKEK

Structure (SMILES) | IC50 [1] | IC50 [2]
N#CC1CCN(c2nc(OC[C@@]34CCCN3C[C@H](F)C4)nc3c(F)c(-c4ccc(F)c5sc(N)nc45)c(C(F)(F)F)cc23)C1 (stereo partly drawn) [Example 60, 1-(7-(2-amino-7-fluorobenzo[d]thiazol-4-yl)-8-fluoro-2-(((2R,7aS)-2-fluorotetrahydro-1H-pyrrolizin-7a(5H)-yl)methoxy)-6-(trifluoromethyl)quinazolin-4-yl)pyrrolidine-3-carbonitrile] | 2.1 nM | 413 nM
N#CC1CCCN(c2nc(OC[C@@]34CCCN3C[C@H](F)C4)nc3c(F)c(-c4ccc(F)c5sc(N)nc45)c(C(F)(F)F)cc23)CC1 (stereo partly drawn) [Example 82, 1-(7-(2-amino-7-fluorobenzo[d]thiazol-4-yl)-8-fluoro-2-(((2R,7aS)-2-fluorotetrahydro-1H-pyrrolizin-7a(5H)-yl)methoxy)-6-(trifluoromethyl)quinazolin-4-yl)azepane-4-carbonitrile] | 0.74 nM | 199 nM
CN1CC2(CCN(c3nc(OC[C@@]45CCCN4C[C@H](F)C5)nc4c(F)c(-c5ccc(F)c6sc(N)nc56)c(C(F)(F)F)cc34)CC2)OC1=O [Example 87, 8-(7-(2-amino-7-fluorobenzo[d]thiazol-4-yl)-8-fluoro-2-(((2R,7aS)-2-fluorotetrahydro-1H-pyrrolizin-7a(5H)-yl)methoxy)-6-(trifluoromethyl)quinazolin-4-yl)-3-methyl-1-oxa-3,8-diazaspiro[4.5]decan-2-one] | 0.77 nM | 108 nM
CC1C(C#N)CN1c1nc(OC[C@@]23CCCN2C[C@H](F)C3)nc2c(F)c(-c3ccc(F)c4sc(N)nc34)c(C(F)(F)F)cc12 (stereo partly drawn) [Example 43, 1-(7-(2-amino-7-fluorobenzo[d]thiazol-4-yl)-8-fluoro-2-(((2R,7aS)-2-fluorotetrahydro-1H-pyrrolizin-7a(5H)-yl)methoxy)-6-(trifluoromethyl)quinazolin-4-yl)-2-methylazetidine-3-carbonitrile] | 7.1 nM | 356 nM
C[C@@H]1C[C@@H](C#N)CCN1c1nc(OC[C@@]23CCCN2C[C@H](F)C3)nc2c(F)c(-c3ccc(F)c4sc(N)c(C#N)c34)c(Cl)cc12 [Example 101, (2R,4S)-1-(7-(2-amino-3-cyano-7-fluorobenzo[b]thiophen-4-yl)-6-chloro-8-fluoro-2-(((2R,7aS)-2-fluorotetrahydro-1H-pyrrolizin-7a(5H)-yl)methoxy)quinazolin-4-yl)-2-methylpiperidine-4-carbonitrile] | 0.28 nM | 11 nM
Nc1nc2c(-c3c(C(F)(F)F)cc4c(N[C@H]5[C@@H]6COC[C@@H]65)nc(OC[C@@]56CCCN5C[C@H](F)C6)nc4c3F)ccc(F)c2s1 [Example 7, 4-(4-(((1R,5S,6r)-3-oxabicyclo [3.1.0]hexan-6-yl)amino)-8-fluoro-2-(((2R,7aS)-2-fluorotetrahydro-1H-pyrrolizin-7a(5H)-yl)methoxy)-6-(trifluoromethyl)quinazolin-7-yl)-7-fluorobenzo[d]thiazol-2-amine] | 4.2 nM | 220 nM
Nc1nc2c(-c3c(C(F)(F)F)cc4c(N5CC(F)C5)nc(OC[C@@]56CCCN5C[C@H](F)C6)nc4c3F)ccc(F)c2s1 [Example 37, 7-fluoro-4-(8-fluoro-4-(3-fluoroazetidin-1-yl)-2-(((2R,7aS)-2-fluorotetrahydro-1H-pyrrolizin-7a(5H)-yl)methoxy)-6-(trifluoromethyl)quinazolin-7-yl)benzo[d]thiazol-2-amine] | 6 nM | 449 nM
N#CC1CN(c2nc(OC[C@@]34CCCN3C[C@H](F)C4)nc3c(F)c(-c4ccc(F)c5sc(N)nc45)c(C(F)(F)F)cc23)C1 [Example 39, 1-(7-(2-amino-7-fluorobenzo[d]thiazol-4-yl)-8-fluoro-2-(((2R,7aS)-2-fluorotetrahydro-1H-pyrrolizin-7a(5H)-yl)methoxy)-6-(trifluoromethyl)quinazolin-4-yl)azetidine-3-carbonitrile] | 5.5 nM | 410 nM
Nc1nc2c(-c3c(C(F)(F)F)cc4c(N5CCC5)nc(OC[C@@]56CCCN5C[C@H](F)C6)nc4c3F)ccc(F)c2s1 [Example 33, 4-(4-(azetidin-1-yl)-8-fluoro-2-(((2R,7aS)-2-fluorotetrahydro-1H-pyrrolizin-7a(5H)-yl)methoxy)-6-(trifluoromethyl)quinazolin-7-yl)-7-fluorobenzo[d]thiazol-2-amine] | 2.6 nM | 333 nM
N#CCC1CCCN(c2nc(OC[C@@]34CCCN3C[C@H](F)C4)nc3c(F)c(-c4cc(N)cc(Cl)c4C(F)(F)F)ncc23)C1 (stereo partly drawn) [Example 126, 2-(1-(7-(5-amino-3-chloro-2-(trifluoromethyl)phenyl)-8-fluoro-2-(((2R,7aS)-2-fluorotetrahydro-1H-pyrrolizin-7a(5H)-yl)methoxy)pyrido[4,3-d]pyrimidin-4-yl)piperidin-3-yl)acetonitrile] | 6.3 nM | 
CC1CN(c2nc(OC[C@@]34CCCN3C[C@H](F)C4)nc3c(F)c(-c4cc(N)cc(Cl)c4C(F)(F)F)ncc23)CCO1 (stereo partly drawn) [Example 119, 3-chloro-5-(8-fluoro-2-(((2R,7aS)-2-fluorotetrahydro-1H-pyrrolizin-7a(5H)-yl)methoxy)-4-(2-methylmorpholino)pyrido[4,3-d]pyrimidin-7-yl)-4-(trifluoromethyl)aniline] | 24 nM | 
N#C[C@H]1C[C@@H](Nc2nc(OC[C@@]34CCCN3C[C@H](F)C4)nc3c(F)c(-c4ccc(F)c5sc(N)nc45)c(C(F)(F)F)cc23)C1 [Example 18, (cis)-3-((7-(2-amino-7-fluorobenzo[d]thiazol-4-yl)-8-fluoro-2-(((2R,7aS)-2-fluorotetrahydro-1H-pyrrolizin-7a(5H)-yl)methoxy)-6-(trifluoromethyl)quinazolin-4-yl)amino)cyclobutane-1-carbonitrile] | 13 nM | 
